Structures are written as SMILES.

For experiment [1], the target named is T1, human wild-type (WT)-pendrin (Homo sapiens, UniProt O43511).
T1 construct: expressed in transfected cells
T1 sequence (O43511 1-780): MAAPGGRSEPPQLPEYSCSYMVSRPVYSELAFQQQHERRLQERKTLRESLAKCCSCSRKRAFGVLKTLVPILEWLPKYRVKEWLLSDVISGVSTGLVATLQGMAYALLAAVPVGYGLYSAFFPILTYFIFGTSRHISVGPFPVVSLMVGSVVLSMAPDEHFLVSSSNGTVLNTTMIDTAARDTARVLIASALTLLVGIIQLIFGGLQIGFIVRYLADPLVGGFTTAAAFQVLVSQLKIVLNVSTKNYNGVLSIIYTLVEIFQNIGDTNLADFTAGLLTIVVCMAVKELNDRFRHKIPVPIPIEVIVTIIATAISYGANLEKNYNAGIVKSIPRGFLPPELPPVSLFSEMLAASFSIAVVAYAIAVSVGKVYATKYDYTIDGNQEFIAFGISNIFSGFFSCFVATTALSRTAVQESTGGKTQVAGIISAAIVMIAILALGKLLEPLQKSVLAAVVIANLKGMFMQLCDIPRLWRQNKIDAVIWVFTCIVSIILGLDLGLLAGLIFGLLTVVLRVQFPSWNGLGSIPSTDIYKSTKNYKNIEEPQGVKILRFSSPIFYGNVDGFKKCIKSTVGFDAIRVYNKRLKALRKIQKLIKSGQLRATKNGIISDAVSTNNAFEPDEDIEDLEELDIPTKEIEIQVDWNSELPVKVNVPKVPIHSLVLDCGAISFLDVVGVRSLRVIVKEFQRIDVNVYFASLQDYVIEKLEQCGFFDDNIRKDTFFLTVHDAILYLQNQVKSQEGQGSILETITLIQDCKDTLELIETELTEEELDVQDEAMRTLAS
The experiment is described as follows: Pendrin-mediated Cl^−/OH^− exchange activity in CHO-K1 cells. Type of experiment: cell-based. Here is the method: For measurement of Cl^−/OH^− exchange activity, intracellular pH (pHi) was measured in WT-pendrin expressing CHO-K1 and HNE cells using pH sensor SNARF5-AM (Molecular Probes). The cells were treated with 5 μM SNARF5-AM for 30 minutes, and then were equipped in a perfusion chamber on the stage of a reverse fluorescence microscope (Nikon, Tokyo, Japan) equipped with a cooled charge-coupled device camera (Zyla sCMOS), image acquisition and analysis software (Meta Imaging Series 7.7). To measure the Cl^−/OH^− exchange activity, HEPES buffer solution was changed to CV-free HEPES buffer solution for generation of an Cl^− gradient driving Cl^− outflow and OH^− inflow of cytosol by pendrin.

The target of experiment [2] is T2, human AN01 (Homo sapiens, UniProt Q5XXA6, DEL476-501).
T2 construct: expressed in transfected cells; host or cells: FRT cells
T2 sequence (Q5XXA6 with tags, fused parts or gaps isoform Q5XXA6-5 DEL539-564): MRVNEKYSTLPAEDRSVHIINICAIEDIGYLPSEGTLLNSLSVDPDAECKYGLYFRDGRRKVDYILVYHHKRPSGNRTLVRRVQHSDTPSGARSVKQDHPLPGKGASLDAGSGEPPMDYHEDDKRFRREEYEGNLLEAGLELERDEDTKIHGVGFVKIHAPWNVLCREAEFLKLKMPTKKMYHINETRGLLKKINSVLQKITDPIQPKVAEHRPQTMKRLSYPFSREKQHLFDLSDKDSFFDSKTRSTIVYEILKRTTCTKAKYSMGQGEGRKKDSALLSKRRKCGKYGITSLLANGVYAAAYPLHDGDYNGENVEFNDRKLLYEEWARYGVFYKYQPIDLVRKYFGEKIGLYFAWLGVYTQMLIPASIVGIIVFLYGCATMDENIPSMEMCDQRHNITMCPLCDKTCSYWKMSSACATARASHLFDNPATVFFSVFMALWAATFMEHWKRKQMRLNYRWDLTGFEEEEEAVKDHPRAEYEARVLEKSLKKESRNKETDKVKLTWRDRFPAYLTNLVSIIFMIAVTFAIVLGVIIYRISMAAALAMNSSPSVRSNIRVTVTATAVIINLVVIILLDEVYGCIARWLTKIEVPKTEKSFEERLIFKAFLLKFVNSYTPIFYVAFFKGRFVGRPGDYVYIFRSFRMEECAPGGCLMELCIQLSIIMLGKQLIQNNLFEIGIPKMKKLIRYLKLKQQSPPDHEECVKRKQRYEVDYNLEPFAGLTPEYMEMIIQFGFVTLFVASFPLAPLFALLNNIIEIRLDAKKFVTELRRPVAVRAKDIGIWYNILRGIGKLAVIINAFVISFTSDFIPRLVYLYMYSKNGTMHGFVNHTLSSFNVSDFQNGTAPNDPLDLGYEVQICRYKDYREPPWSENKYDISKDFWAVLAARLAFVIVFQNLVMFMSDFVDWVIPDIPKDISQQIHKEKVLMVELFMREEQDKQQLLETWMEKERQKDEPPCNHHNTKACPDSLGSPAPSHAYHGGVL
The experiment in a line: AN01 chloride channel activity in FRT cells. It counts as cell-based. The protocol:
(A) The inhibition of mouse pendrin (mPDS)-mediated Cl^−/I^− exchange activity by F56 was measured in CHO-K1 cells (mean±S.E., n=5). The indicated concentration of F56 was pretreated for 10 minutes. (B) Summary of dose-response for inhibition of the human pendrin (hPDS)-mediated (closed circle, FIG. (a), C) and mPDS-mediated (open circle) Cl^−/I^− exchange activity. (C-F) Representative traces of intracellular pH in CHO-K1 cells expressing SLC26A3, SLC26A6, SLC26A7 and SLC26A9 were shown. The application of Cl^− free solution induced intracellular alkalization by Cl^−/HCO3^− exchange. The indicated concentration of F56 was pretreated for 10 minutes. (G) the effect of F56 (100 μM) on the CFTR chloride channel activity was measured in FRT cells expressing human CFTR. […] (H) The effect of F56 (100 μM) on the AN01 chloride channel activity was measured in FRT cells expressing human AN01. […] (I) The effect of F56 on the hERG (Kv11.1) potassium channel activity was measured in HEK293T cells expressing human Kv11.1 (mean±S.E., n=4). […] (J) The effect of F56 on the 5-HT2A channel activity was measured in FRT cells expressing human 5-HT2A (mean±S.E., n=4). […]
(A) The effect of F10 (30 μM) on the CFTR channel was measured in FRT cells expressing human CFTR and mutant YFP. […] (B) The effect of F10 (30 μM) on the AN01 channel activity was measured in FRT cells expressing human and mutant YFP. […]

Turning to `CC(C)(C)c1ccc(C2=NC(=Cc3ccc[nH]3)C(=O)O2)cc1` [F10, 4-((1H-pyrrol-2-yl)methylene)-2-(4-(tert-butyl)phenyl)oxazol-5 (4H)-one], the “inhibition of pendrin Cl^−/OH^− exchange activity” value in experiment [1] is “strongly inhibit”. Also, in experiment [2] (30 μM, FRT cells with mutant YFP), the “effect on AN01 channel activity” value is recorded as “did not show any effect”.

Regarding `CC(C)(C)c1ccc(C2=NC(=Cc3cccs3)C(=O)O2)cc1` [F56, 2-(4-(tert-butyl)phenyl)-4-(thiophen-2-ylmethylene)oxazol-5(4H)-one], in experiment [1], the “inhibition of pendrin Cl^−/OH^− exchange activity” value is reported as “strongly inhibited”. Moreover, in experiment [2] (100 μM, FRT cells, ATP-activated), the “effect on AN01 activity” value is given as “not affected”.

(Values after patent US12691101B2, “Compound and method for preventing or treating of respiratory diseases comprising the same as an active ingredient” (YONSEI UNIVERSITY, UNIVERSITY - INDUSTRY FOUNDATION (UIF), priority 2019, dated 2026).)
